Source: ChEMBL document CHEMBL2396621, “Design, synthesis and biological evaluation of 2-mercapto-3-phenethylquinazoline bearing anilide fragments as potential antitumor agents: molecular docking study” (2013)

Tests used:
Format in all cases: functional
HCT-116 = test: Cytotoxicity against human HCT116 cells assessed as growth inhibition at 10 uM after 48 hrs by coulter counter analysis; conditions: HCT-116, 48 h, read-out: GI
RXF 393 = test: Cytotoxicity against human RXF393 cells assessed as growth inhibition at 10 uM after 48 hrs by coulter counter analysis; conditions: RXF 393, 48 h, read-out: GI
IGROV-1 = test: Cytotoxicity against human IGROV1 cells assessed as growth inhibition at 10 uM after 48 hrs by coulter counter analysis; conditions: IGROV-1, 48 h, read-out: GI
BT-549 = test: Cytotoxicity against human BT549 cells assessed as growth inhibition at 10 uM after 48 hrs by coulter counter analysis; conditions: BT-549, 48 h, read-out: GI
[1] = Cytotoxicity against human EKVX cells assessed as growth inhibition at 10 uM after 48 hrs by coulter counter analysis; conditions: read-out: GI
SK-OV-3 = test: Cytotoxicity against human SKOV3 cells assessed as growth inhibition at 10 uM after 48 hrs by coulter counter analysis; conditions: SK-OV-3, 48 h, read-out: GI
M14 = test: Cytotoxicity against human M14 cells assessed as growth inhibition at 10 uM after 48 hrs by coulter counter analysis; conditions: M14, 48 h, read-out: GI
T47D = test: Cytotoxicity against human T47D cells assessed as growth inhibition at 10 uM after 48 hrs by coulter counter analysis; conditions: read-out: GI
Hs-578T = test: Cytotoxicity against human Hs578T cells assessed as growth inhibition at 10 uM after 48 hrs by coulter counter analysis; conditions: read-out: GI
UACC-62 = test: Cytotoxicity against human UACC62 cells assessed as growth inhibition at 10 uM after 48 hrs by coulter counter analysis; conditions: UACC-62, 48 h, read-out: GI
786-0 = test: Cytotoxicity against human 786-0 cells assessed as growth inhibition at 10 uM after 48 hrs by coulter counter analysis; conditions: 786-0, 48 h, read-out: GI
NCI-H226 = test: Cytotoxicity against human NCI-H226 cells assessed as growth inhibition at 10 uM after 48 hrs by coulter counter analysis; conditions: NCI-H226, 48 h, read-out: GI
SNB-75 = test: Cytotoxicity against human SNB75 cells assessed as growth inhibition at 10 uM after 48 hrs by coulter counter analysis; conditions: SNB-75, 48 h, read-out: GI
SK-MEL-28 = test: Cytotoxicity against human SK-MEL-28 cells assessed as growth inhibition at 10 uM after 48 hrs by coulter counter analysis; conditions: SK-MEL-28, 48 h, read-out: GI
SK-MEL-5 = test: Cytotoxicity against human SK-MEL-5 cells assessed as growth inhibition at 10 uM after 48 hrs by coulter counter analysis; conditions: SK-MEL-5, 48 h, read-out: GI
KM12 = test: Cytotoxicity against human KM12 cells assessed as growth inhibition at 10 uM after 48 hrs by coulter counter analysis; conditions: KM12, 48 h, read-out: GI
NCI-H460 = test: Cytotoxicity against human NCI-H460 cells assessed as growth inhibition at 10 uM after 48 hrs by coulter counter analysis; conditions: NCI-H460, 48 h, read-out: GI
UACC-257 = test: Cytotoxicity against human UACC257 cells assessed as growth inhibition at 10 uM after 48 hrs by coulter counter analysis; conditions: UACC-257, 48 h, read-out: GI
MDA-MB-435 = test: Cytotoxicity against human MDA-MB-435 cells assessed as growth inhibition at 10 uM after 48 hrs by coulter counter analysis; conditions: MDA-MB-435, 48 h, read-out: GI
COLO 205 = test: Cytotoxicity against human COLO205 cells assessed as growth inhibition at 10 uM after 48 hrs by coulter counter analysis; conditions: COLO 205, 48 h, read-out: GI
NCI-H23 = test: Cytotoxicity against human NCI-H23 cells assessed as growth inhibition at 10 uM after 48 hrs by coulter counter analysis; conditions: NCI-H23, 48 h, read-out: GI
NCI-H322M = test: Cytotoxicity against human NCI-H322M cells assessed as growth inhibition at 10 uM after 48 hrs by coulter counter analysis; conditions: read-out: GI
SN12C = test: Cytotoxicity against human SN12C cells assessed as growth inhibition at 10 uM after 48 hrs by coulter counter analysis; conditions: read-out: GI
SF-539 = test: Cytotoxicity against human SF539 cells assessed as growth inhibition at 10 uM after 48 hrs by coulter counter analysis; conditions: SF-539, 48 h, read-out: GI
HOP-62 = test: Cytotoxicity against human HOP62 cells assessed as growth inhibition at 10 uM after 48 hrs by coulter counter analysis; conditions: HOP-62, 48 h, read-out: GI
OVCAR-5 = test: Cytotoxicity against human OVCAR5 cells assessed as growth inhibition at 10 uM after 48 hrs by coulter counter analysis; conditions: OVCAR-5, 48 h, read-out: GI
LOX IMVI = test: Cytotoxicity against human LOXIMVI cells assessed as growth inhibition at 10 uM after 48 hrs by coulter counter analysis; conditions: read-out: GI
UO-31 = test: Cytotoxicity against human UO31 cells assessed as growth inhibition at 10 uM after 48 hrs by coulter counter analysis; conditions: UO-31, 48 h, read-out: GI
A549 = test: Cytotoxicity against human A549 cells assessed as growth inhibition at 10 uM after 48 hrs by coulter counter analysis; conditions: A549, 48 h, read-out: GI
MDA-MB-468 = test: Cytotoxicity against human MDA-MB-468 cells assessed as growth inhibition at 10 uM after 48 hrs by coulter counter analysis; conditions: MDA-MB-468, 48 h, read-out: GI
PC-3 = test: Cytotoxicity against human PC3 cells assessed as growth inhibition at 10 uM after 48 hrs by coulter counter analysis; conditions: PC-3, 48 h, read-out: GI
A498 = test: Cytotoxicity against human A498 cells assessed as growth inhibition at 10 uM after 48 hrs by coulter counter analysis; conditions: A498, 48 h, read-out: GI
OVCAR-4 = test: Cytotoxicity against human OVCAR4 cells assessed as growth inhibition at 10 uM after 48 hrs by coulter counter analysis; conditions: OVCAR-4, 48 h, read-out: GI
Malme-3M = test: Cytotoxicity against human MALME-3M cells assessed as growth inhibition at 10 uM after 48 hrs by coulter counter analysis; conditions: read-out: GI
DU-145 = test: Cytotoxicity against human DU145 cells assessed as growth inhibition at 10 uM after 48 hrs by coulter counter analysis; conditions: DU-145, 48 h, read-out: GI
SNB-19 = test: Cytotoxicity against human SNB19 cells assessed as growth inhibition at 10 uM after 48 hrs by coulter counter analysis; conditions: SNB-19, 48 h, read-out: GI
OVCAR-8 = test: Cytotoxicity against human OVCAR8 cells assessed as growth inhibition at 10 uM after 48 hrs by coulter counter analysis; conditions: OVCAR-8, 48 h, read-out: GI

Structure (SMILES)	inhibition of growth at 10 µM (HCT-116) [%]	inhibition of growth at 10 µM (RXF 393) [%]	inhibition of growth at 10 µM (IGROV-1) [%]	inhibition of growth at 10 µM (SK-OV-3) [%]	inhibition of growth at 10 µM (M14) [%]	inhibition of growth at 10 µM (T47D) [%]	inhibition of growth at 10 µM (Hs-578T) [%]	inhibition of growth at 10 µM (UACC-62) [%]	inhibition of growth at 10 µM (786-0) [%]	inhibition of growth at 10 µM (SNB-75) [%]	inhibition of growth at 10 µM (SK-MEL-28) [%]	inhibition of growth at 10 µM (SK-MEL-5) [%]	inhibition of growth at 10 µM (KM12) [%]	inhibition of growth at 10 µM (NCI-H460) [%]	inhibition of growth at 10 µM (UACC-257) [%]	inhibition of growth at 10 µM (MDA-MB-435) [%]	inhibition of growth at 10 µM (COLO 205) [%]	inhibition of growth at 10 µM (NCI-H23) [%]	inhibition of growth at 10 µM (NCI-H322M) [%]	inhibition of growth at 10 µM (SN12C) [%]	further results
O=C(CSc1nc2ccccc2c(=O)n1CCc1ccccc1)Nc1ccccc1C(=O)O	45	25	42	53	12	27	45	21	16	74	17	35	10	41	35	35	35	26	19	< 10	inhibition of growth at 10 µM (BT-549): 10%; inhibition of growth at 10 µM [1]: 25%; inhibition of growth at 10 µM (NCI-H226): 26%; inhibition of growth at 10 µM (SF-539): 44%; inhibition of growth at 10 µM (HOP-62): 49%; inhibition of growth at 10 µM (OVCAR-5): < 10%; inhibition of growth at 10 µM (LOX IMVI): 38%; inhibition of growth at 10 µM (UO-31): < 10%; inhibition of growth at 10 µM (A549): 46%; inhibition of growth at 10 µM (MDA-MB-468): 14%; inhibition of growth at 10 µM (PC-3): < 10%; inhibition of growth at 10 µM (A498): 26%; inhibition of growth at 10 µM (OVCAR-4): 23%; inhibition of growth at 10 µM (Malme-3M): 18%; inhibition of growth at 10 µM (DU-145): 30%; inhibition of growth at 10 µM (SNB-19): 40%; inhibition of growth at 10 µM (OVCAR-8): 61%
O=C(CSc1nc2ccccc2c(=O)n1CCc1ccccc1)Oc1ccccc1	21	< 10	10	28	13	14	< 10	19	13	28	< 10	< 10	< 10	14	11	19	< 10	14	25	16	inhibition of growth at 10 µM (BT-549): < 10%; inhibition of growth at 10 µM (SF-539): < 10%; inhibition of growth at 10 µM (OVCAR-5): < 10%; inhibition of growth at 10 µM (LOX IMVI): 16%; inhibition of growth at 10 µM (UO-31): 16%; inhibition of growth at 10 µM (A549): 12%; inhibition of growth at 10 µM (MDA-MB-468): < 10%; inhibition of growth at 10 µM (PC-3): 14%; inhibition of growth at 10 µM (A498): 18%; inhibition of growth at 10 µM (OVCAR-4): 59%; inhibition of growth at 10 µM (Malme-3M): 16%; inhibition of growth at 10 µM (SNB-19): < 10%; inhibition of growth at 10 µM (OVCAR-8): 23%
O=C(CSc1nc2ccccc2c(=O)n1CCc1ccccc1)Nc1ccc(Cl)cc1	23	22	36	43	< 10	56	45	34	13	63	10	22	14	32	18	13	15	21	13	13	inhibition of growth at 10 µM [1]: 29%; inhibition of growth at 10 µM (NCI-H226): 24%; inhibition of growth at 10 µM (SF-539): 41%; inhibition of growth at 10 µM (HOP-62): 40%; inhibition of growth at 10 µM (OVCAR-5): < 10%; inhibition of growth at 10 µM (LOX IMVI): 23%; inhibition of growth at 10 µM (UO-31): 28%; inhibition of growth at 10 µM (A549): 16%; inhibition of growth at 10 µM (MDA-MB-468): 36%; inhibition of growth at 10 µM (PC-3): 30%; inhibition of growth at 10 µM (A498): < 10%; inhibition of growth at 10 µM (OVCAR-4): 14%; inhibition of growth at 10 µM (Malme-3M): < 10%; inhibition of growth at 10 µM (DU-145): 12%; inhibition of growth at 10 µM (SNB-19): 30%; inhibition of growth at 10 µM (OVCAR-8): 39%
